Results: patent US8293909B2, “Compounds for the treatment of hepatitis C” (Bristol-Myers Squibb Company, priority 2008, dated 2012)

Experiments:
HCV replicon cells = assay: HCV replicon assay (FRET or luciferase readout); format: cell-based; conditions: Hepatitis C virus, Table 1
Source text: FRET Assay Preparation. To perform the HCV FRET screening assay, 96-well cell culture plates were used. The FRET peptide (Anaspec, Inc.) (Taliani et al., Anal. Biochem. 1996, 240, 60-67) contains a fluorescence donor, EDANS, near one end of the peptide and an acceptor, DABCYL, near the other end. The fluorescence of the peptide is quenched by […] resonance energy transfer (RET) between the donor and the acceptor, but as the NS3 protease cleaves the peptide the products are released from RET quenching and the fluorescence of the donor becomes apparent. The assay reagent was made as follows: 5× cell Luciferase cell culture lysis reagent from Promega (#E153A) diluted to 1× with dH2O, NaCl added to 150 mM final, the FRET peptide diluted to 20 μM final from a 2 mM stock.
To prepare plates, HCV replicon cells, with or without a Renilla luciferase reporter gene, were trypsinized and placed into each well of a 96-well plate with titrated test compounds added in columns 3 through 12; columns 1 and 2 contained a control compound (HCV protease inhibitor), and the bottom row contained cells without compound. The plates were then placed in a CO2 incubator at 37° C.
Assays. Subsequent to addition of the test compounds described above (FRET Assay Preparation), at various times the plate was removed and Alamar blue solution (Trek Diagnostics, #00-100) was added per well as a measure of cellular toxicity. After reading in a Cytoflour 4000 instrument (PE Biosystems), plates were rinsed with PBS and then used for FRET assay by the addition of 30 ul of the FRET peptide assay reagent described above (FRET Assay Preparation) per well. The plate was then placed into the Cytoflour 4000 instrument which had been set to 340 excite/490 emission, automatic mode for 20 cycles and the plate read in a kinetic mode. Typically, the signal to noise using an endpoint analysis after the reads was at least three-fold. Alternatively, after Alamar blue reading, plates were rinsed with PBS, 50 ul of DMEM (high glucose) without phenol red was added and plates were then used for luciferase assay using the Promega Dual-Glo Luciferase Assay System.
Compound analysis was determined by quantification of the relative HCV replicon inhibition and the relative cytotoxicity values. To calculate cytoxicity values, the average Alamar Blue fluorescence signals from the control wells were set as 100% non-toxic. The individual signals in each of the compound test wells were then divided by the average control signal and multiplied by 100% to determine […]. To calculate the HCV replicon inhibition values, an average background value was obtained from the two wells containing the highest amount of HCV protease inhibitor at the end of the assay period. These numbers were similar to those obtained from naïve Huh-7 cells.
The background numbers were then subtracted from the average signal obtained from the control wells and this number was used as 100% activity. The individual signals in each of the compound test wells were then divided by the averaged control values after background subtraction and multiplied by 100% to determine percent activity. EC50 values for a protease inhibitor titration were calculated as the concentration which caused a 50% reduction in FRET or luciferase activity. The two numbers generated for the compound plate, percent cytoxicity and percent activity were used to determine compounds of interest for further analysis.

[1] = target: T1, HCV NS5B RdRp genotype 1b (Hepatitis C virus genotype 1b, UniProt Q9WMX2); assay: HCV NS5B RdRp enzyme assay (standard / modified); format: biochemical; conditions: Table 1; HCV NS5B genotype 1b
T1 construct: The protein was expressed with an 18 amino acid C-terminal truncation to enhance the solubility; made in house; host or cells: E. coli BL21(DE3), pET21a vector
T1 sequence (Q9WMX2 2420-2992): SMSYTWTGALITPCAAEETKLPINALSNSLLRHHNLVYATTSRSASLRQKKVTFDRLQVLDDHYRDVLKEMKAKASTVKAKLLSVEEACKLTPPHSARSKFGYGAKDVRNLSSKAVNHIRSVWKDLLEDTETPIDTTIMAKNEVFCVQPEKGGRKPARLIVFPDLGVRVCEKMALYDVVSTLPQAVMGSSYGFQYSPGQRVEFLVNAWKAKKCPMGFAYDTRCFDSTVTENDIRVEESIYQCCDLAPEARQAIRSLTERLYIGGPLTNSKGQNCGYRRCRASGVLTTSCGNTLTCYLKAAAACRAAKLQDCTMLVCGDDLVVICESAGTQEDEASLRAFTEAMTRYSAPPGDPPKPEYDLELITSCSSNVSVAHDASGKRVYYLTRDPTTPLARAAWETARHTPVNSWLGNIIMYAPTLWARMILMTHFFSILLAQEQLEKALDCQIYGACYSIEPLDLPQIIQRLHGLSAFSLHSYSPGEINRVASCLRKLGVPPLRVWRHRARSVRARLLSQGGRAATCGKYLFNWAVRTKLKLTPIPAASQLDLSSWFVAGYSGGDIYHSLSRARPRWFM
Method: HCV NS5B RdRp cloning, expression, and purification. The cDNA encoding the NS5B protein of HCV, genotype 1b, was cloned into the pET21a expression vector. The protein was expressed with an 18 amino acid C-terminal truncation to enhance the solubility. The E. coli competent cell line BL21(DE3) was used for expression of the protein. Cultures were grown at 37° C. for ˜4 hours until the cultures reached an optical density of 2.0 at 600 nm. The cultures were cooled to 20° C. and induced with 1 mM IPTG. Fresh ampicillin was added to a final concentration of 50 μg/ml and the cells were grown overnight at 20° C.
Cell pellets (3 L) were lysed for purification to yield 15-24 mgs of purified NS5B. The lysis buffer consisted of 20 mM Tris-HCl, pH 7.4, 500 mM NaCl, 0.5% triton X-100, 1 mM DTT, 1 mM EDTA, 20% glycerol, 0.5 mg/ml lysozyme, 10 mM MgCl2, 15 ug/ml deoxyribonuclease I, and Complete™ protease inhibitor tablets (Roche). After addition of the lysis buffer, frozen cell pellets were resuspended using a tissue homogenizer. To reduce the viscosity of the sample, aliquots of the lysate were sonicated on ice using a microtip attached to a Branson sonicator. The sonicated lysate was centrifuged at 100,000×g for 1 hr at 4° C. and filtered through a 0.2 μm filter unit (Corning).
The protein was purified using three sequential chromatography steps: Heparin sepharose CL-6B, polyU sepharose 4B, and Hitrap SP sepharose (Pharmacia). The chromatography buffers were identical to the lysis buffer but contained no lysozyme, deoxyribonuclease I, MgCl2 or protease inhibitor and the NaCl concentration of the buffer was adjusted according to the requirements for charging the protein onto the column. Each column was eluted with a NaCl gradient which varied in length from 5-50 column volumes depending on the column type. After the final chromatography step, the resulting purity of the enzyme is >90% based on SDS-PAGE analysis. The enzyme was aliquoted and stored at −80° C.
Standard HCV NS5B RdRp enzyme assay. HCV RdRp genotype 1b assays were run in a final volume of 60 μl in 96 well plates (Costar 3912). The assay buffer is composed of 20 mM Hepes, pH 7.5, 2.5 mM KCl, 2.5 mM MgCl2, 1 mM DTT, 1.6 U RNAse inhibitor (Promega N2515), 0.1 mg/ml BSA (Promega R3961), and 2% glycerol. All compounds were serially diluted (3-fold) in DMSO and diluted further in water such that the final concentration of DMSO in the assay was 2%. HCV RdRp genotype 1b enzyme was used at a final concentration of 28 nM. A polyA template was used at 6 nM, and a biotinylated oligo-dT12 primer was used at 180 nM final concentration. Template was obtained commercially (Amersham 27-4110). Biotinylated primer was prepared by Sigma Genosys. 3H-UTP was used at 0.6 μCi (0.29 μM total UTP). Reactions were initiated by the addition of enzyme, incubated at 30° C. for 60 min, and stopped by adding 25 μl of 50 mM EDTA containing SPA beads (4 μg/μl, Amersham RPNQ 0007). Plates were read on a Packard Top Count NXT after >1 hr incubation at room temperature.
Modified HCV NS5B RdRp enzyme assay. A modified enzyme assay was performed essentially as described for the standard enzyme assay except for the following: The biotinylated oligo dT12 primer was precaptured on streptavidin-coated SPA beads by mixing primer and beads in assay buffer and incubating at room temperature for one hour. Unbound primer was removed after centrifugation. The primer-bound beads were resuspended in 20 mM Hepes buffer, pH 7.5 and used in the assay at final concentrations of 20 nM primer and 0.67 μg/μl beads. Order of addition in the assay: enzyme (14 nM) was added to diluted compound followed by the addition of a mixture of template (0.2 nM), 3H-UTP (0.6 μCi, 0.29 μM), and primer-bound beads, to initiate the reaction; concentrations given are final. Reactions were allowed to proceed for 4 hours at 30° C.
IC50 values for compounds were determined using seven different [I]. […]

| SMILES | EC50 (HCV replicon cells) [nM] | IC50 [1] [nM] |
| --- | --- | --- |
| CNC(=O)c1c(-c2ccccc2)nn2cc(I)ccc12 | > 10000 | > 10000 |
| CNC(=O)c1cccc(-c2ccc3c(C(=O)NC)c(-c4ccccc4)nn3c2)c1 | > 10000 | > 10000 |
| CNC(=O)c1c(-c2ccccc2)nn2cc(N3CCOC3=O)ccc12 | > 10000 | > 10000 |
| CNC(=O)c1c(-c2ccccc2)nn2cc(-c3ccccc3C)ccc12 | > 10000 | > 10000 |
| CNC(=O)c1c2cc(-c3cccc(C(=O)NC(C)(C)C)c3)ccc2nn1-c1ccc(F)cc1 | 1000 to 10000 | 1000 to 10000 |
| CNC(=O)c1c2cc(-c3cccc(C(=O)NC(C)(C)c4ccccc4)c3)ccc2nn1-c1ccc(F)cc1 | 250 to 1000 | 2 to 250 |
| CNC(=O)c1c2cc(-c3cccc(C(=O)NC4(c5ccccn5)CC4)c3)ccc2nn1-c1ccc(F)cc1 | 1000 to 10000 | 1000 to 10000 |
| CNC(=O)c1c(-c2ccc(F)cc2)nn2ccc(-c3cc(C(=O)NC4(c5ccc(F)cc5)CC4)ccc3C)cc12 | 2 to 250 | 2 to 250 |
| CCN(c1cn2nc(-c3ccc(F)cc3)c(C(=O)NC)c2cc1-c1ccccc1)S(C)(=O)=O | 250 to 1000 | 2 to 250 |
| CNC(=O)c1c2cc(-c3cc(C(=O)NC(C)(C)c4ccccc4)ccc3Cl)ccc2nn1-c1ccc(F)cc1 | 2 to 250 | 2 to 250 |
| CNC(=O)c1c2cc(-c3cc(C(=O)NC(C)(C)c4ccccc4)ccc3C)ccc2nn1-c1ccc(F)cc1 | 2 to 250 | 2 to 250 |
| CCN(c1cn2nc(-c3ccc(F)cc3)c(C(=O)NC)c2cc1C1CCCCC1)S(C)(=O)=O | 1000 to 10000 | 1000 to 10000 |
| CCN(c1cn2nc(-c3ccc(F)cc3)c(C(=O)NC)c2cc1C1CCCC1)S(C)(=O)=O | 1000 to 10000 | 250 to 1000 |
| CCN(c1cn2nc(-c3ccc(F)cc3)c(C(=O)NC)c2cc1C1CC1)S(C)(=O)=O | 2 to 250 | 2 to 250 |
| CCN(c1cn2nc(-c3ccc(F)cc3)c(C(=O)NC)c2cc1-c1cc(C(=O)NC2(c3ccc(F)cc3)CC2)ccc1C)S(C)(=O)=O | 2 to 250 | 2 to 250 |
| CNC(=O)c1c(-c2ccc(F)cc2)nn2ccc(-c3cc(C(=O)NC4(c5ccccc5)CCC4)ccc3C)cc12 | 2 to 250 | 2 to 250 |
| CNC(=O)c1c(-c2ccc(F)cc2)oc2ccc(-c3cc(C(=O)NC4(c5ccccn5)CC4)ccc3C)nc12 | 2 to 250 | 2 to 250 |
| CNC(=O)c1c(-c2ccc(F)cc2)nc2ccc(-c3ccc(-c4ccccc4)c(C(=O)NCC(C)C)c3)cn12 | 250 to 1000 | > 500 |

| SMILES | EC50 (HCV replicon cells) [nM] | IC50 [1] [nM] |
| --- | --- | --- |
| CNC(=O)c1c(-c2ccc(F)cc2)nc2cc(C)c(-c3cc(C(=O)NC(C)(C)c4ccccc4)ccc3C)cn12 | 2 to 250 | 2 to 250 |
| CNC(=O)c1c(-c2ccc(F)cc2)oc2cnc(-c3cc(C(=O)NC4(c5ccccn5)CC4)ccc3C)cc12 | 2 to 250 | 2 to 250 |
| CNC(=O)c1c(-c2ccc(F)cc2)nn2c(C)cc(-c3cc(C(=O)NC4(c5ccccc5)CC4)ccc3C)cc12 | 2 to 250 | 2 to 250 |
| CNC(=O)c1c(-c2ccc(F)cc2)oc2ccc(-c3cccc(C(=O)NC4(c5ccccn5)CC4)c3)nc12 | 250 to 1000 | 1000 to 10000 |
| CNC(=O)c1c(-c2ccc(F)cc2)oc2cnc(-c3cccc(C(=O)NC4(c5ccccn5)CC4)c3)cc12 | 1000 to 10000 | 2 to 250 |
| CNC(=O)c1c(-c2ccc(F)cc2)nn2cc(F)c(-c3cc(C(=O)NC4(c5ccccc5)CC4)ccc3C)cc12 | 2 to 250 | 2 to 250 |
| CNC(=O)c1c(-c2ccc(F)cc2)nn2ccc(-c3cc(C(=O)NC4(c5nc(C)no5)CC4)ccc3C)c(F)c12 | > 10000 | 1000 to 10000 |
| CNC(=O)c1c(-c2ccc(F)cc2)nn2c(F)cc(-c3cc(C(=O)NC4(c5ccccc5)CC4)ccc3C)cc12 | 2 to 250 | 2 to 250 |
| CNC(=O)c1c(-c2ccc(F)cc2)nn2c(F)cc(-c3cc(C(=O)NC4(c5ccccn5)CC4)ccc3C)cc12 | 2 to 250 | 2 to 250 |
| CCN(c1cn2nc(-c3ccc(F)cc3)c(C(=O)NC)c2cc1-c1cc(C(=O)NC2(c3ccccn3)CC2)ccc1C)S(C)(=O)=O | 2 to 250 | 2 to 250 |
| CNC(=O)c1c(-c2ccc(F)cc2)nn2ccc(-c3cc(C(=O)NC4(C5CCCCC5)CC4)c(OC)cc3C)c(F)c12 | 2 to 250 | 2 to 250 |
| CNC(=O)c1c(-c2ccc(F)cc2)nn2ccc(-c3cc(C(=O)NC4(C)CC4)c(OC)cc3C)c(F)c12 | 2 to 250 | 2 to 250 |
| CNC(=O)c1c(-c2ccc(F)cc2)nn2ccc(-c3cc(C(=O)NC4(c5ccc(F)cc5)CC4)c(OC)cc3C)c(F)c12 | 2 to 250 | 2 to 250 |
| CNC(=O)c1c(-c2ccc(F)cc2)nn2ccc(-c3cc(C(=O)NC4(C5CC5)CC4)c(OC)cc3C)c(F)c12 | 2 to 250 | 2 to 250 |
| CNC(=O)c1c(-c2ccc(F)cc2)nn2ccc(-c3cc(C(=O)NC4(C(C)C)CC4)c(OC)cc3C)c(F)c12 | 2 to 250 | 2 to 250 |
| CNC(=O)c1c(-c2ccc(F)cc2)nn2ccc(-c3cc(C(=O)NC4(c5cccc(F)c5)CC4)c(OC)cc3C)c(F)c12 | 2 to 250 | 2 to 250 |
| CNC(=O)c1c(-c2ccc(F)cc2)nn2ccc(-c3cc(C(=O)NC4(c5ccccc5F)CC4)c(OC)cc3C)c(F)c12 | 250 to 1000 | 2 to 250 |
